Patent publication US11000033B2, “Ketone or oxime compound, and herbicide” (NISSAN CHEMICAL CORPORATION, priority 2014, dated 2021)

How the values were obtained:
Assay type in all cases: in vivo
rapeseed = assay: Test Example 5: effect on crop by foliage application, plastic box (symbol g); conditions: 320 g/ha, 3 weeks after application
In short: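 Crop seed is sown alongside grass and broadleaf weed species in spots in sterilized diluvial soil, then covered to a depth of about 1.5 cm. Plants grow in a greenhouse kept at 25° C. to 30° C.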

Chenopodium album = assay: Test Example 5: herbicidal effect by foliage application, plastic box (symbol O); conditions: 320 g/ha, 3 weeks after application
In short: (§1)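 Effect is rated 3 weeks after a foliar spray of water-diluted emulsion concentrate at a predetermined herbicide amount. Plants had grown 14 days in a 25° C. to 30° C. greenhouse from seed in sterilized diluvial soil.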

Scirpus juncoides [1] = assay: Test Example 2: herbicidal activity, application during weed generation in submerged conditions (symbol B); conditions: Table 23; application herbicide amount 320 g/ha; grade 0-5 by criteria of Test Example 1
In short: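 Weeds emerging under flooded conditions were treated with compound formulated as an emulsion and diluted with water to the intended herbicide amount, poured onto the surface of 4 cm standing water. Seeds had been co-sown in alluvial soil; plants grew at 25° C. to 30° C. and were assessed after 3 weeks.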

Monochoria vaginalis = assay: Test Example 1: herbicidal activity, application before weed generation in submerged conditions (symbol C); conditions: application herbicide amount 320 g/ha
In short: (§2)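 Scores run 0 to 5 by herbicidal ratio, with 5 meaning 90% or more and 0 meaning 5% or lower, read 3 weeks after treatment. Compound was applied as a diluted emulsion to the water surface of submerged alluvial-soil pots on the day weed seeds were sown.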

[2] = tested on: Echinochloa crus-galli var. crus-galli; assay: Test Example 5: herbicidal effect by foliage application, plastic box (symbol H); conditions: 320 g/ha, 3 weeks after application
In short: as §1

transplanted rice plant = assay: Test Example 1: effect on crop, application before weed generation in submerged conditions (symbol a); conditions: application herbicide amount 320 g/ha
In short: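 Alluvial soil pots flooded to 4 cm water, sown with Echinochloa oryzacola, Scirpus juncoides and Monochoria vaginalis, then transplanted with 2.5 leaf stage rice seedlings; pre-emergence application. Greenhouse 25° C. to 30° C.; scored 0–5 by herbicidal ratio 3 weeks after application.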

Scirpus juncoides [3] = assay: Test Example 1: herbicidal activity, application before weed generation in submerged conditions (symbol B); conditions: application herbicide amount 320 g/ha
In short: as §2

soybean = assay: Test Example 4: effect on crop by soil treatment (symbol d); conditions: application herbicide amount 320 g/ha
In short: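 The test used sterilized diluvial soil. Seed was set down in spots and overlaid with about 1.5 cm of soil before growth in a greenhouse kept at 25° C. to 30° C.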

Leptochloa chinensis = assay: Test Example 3: herbicidal effect by foliage application, Wagner pot (symbol D); conditions: application herbicide amount 320 g/ha
In short: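 Alluvial soil was flooded to a depth of 0.1–0.5 cm, seeded with the weeds and rice, and kept in a greenhouse at 25–30 °C. After 14 days of growth, the foliage received a small-sprayer application of emulsion diluted to the intended rate; injury was rated at 3 weeks.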

| Structure (SMILES) | g: rapeseed, effect on crop grade (rapeseed) | O: Chenopodium album, herbicidal effect grade (Chenopodium album) | Herbicidal effect grade, B: Scirpus juncoides (Scirpus juncoides [1]) | Herbicidal effect grade, C: Monochoria vaginalis (Monochoria vaginalis) | H: Echinochloa crus-galli var. crus-galli, herbicidal effect grade [2] | Effect grade on crop, a: transplanted rice plant (transplanted rice plant) | Herbicidal effect grade, B: Scirpus juncoides (Scirpus juncoides [3]) | d (soybean) effect on crop grade (soybean) | herbicidal effect on D (Leptochloa chinensis), grade 0-5 (Leptochloa chinensis) | H: Echinochloa crus-galli var. crus-galli, herbicidal effect (criteria 0-5) [2] | g: rapeseed, effect on crop (criteria 0-5) (rapeseed) |
| --- | --- | --- | --- | --- | --- | --- | --- | --- | --- | --- | --- |
| COCCON=C(C)CC1CC(O)=C(c2c(C)cc(C)cc2C)C1=O (stereo not shown) [1-041] | 4 (Herbicidal ratio of 70% or higher and lower than 90%) | 3 (Herbicidal ratio of 40% or higher and lower than 70%) | 0 (Herbicidal ratio of 5% or lower (almost no effect)) | 0 (Herbicidal ratio of 5% or lower (almost no effect)) | 5 (Herbicidal ratio of 90% or more (almost completely withered)) | 5 (Herbicidal ratio of 90% or more (almost completely withered)) | 5 (Herbicidal ratio of 90% or more (almost completely withered)) | 1 (Herbicidal ratio of 5% or higher and lower than 20%) | 5 (Herbicidal ratio of 90% or more (almost completely withered)) |  |  |
| CC(CC1CC(O)=C(c2c(C)cc(C)cc2C)C1=O)=NOCc1ccccc1F (stereo not shown) [1-026] | 4 (Herbicidal ratio of 70% or higher and lower than 90%) | 3 (Herbicidal ratio of 40% or higher and lower than 70%) | 3 (Herbicidal ratio of 40% or higher and lower than 70%) | 5 (Herbicidal ratio of 90% or more (almost completely withered)) | 4 (Herbicidal ratio of 70% or higher and lower than 90%) | 5 (Herbicidal ratio of 90% or more (almost completely withered)) | 5 (Herbicidal ratio of 90% or more (almost completely withered)) | 0 (Herbicidal ratio of 5% or lower (almost no effect)) | 5 (Herbicidal ratio of 90% or more (almost completely withered)) |  |  |
| CON=C(C)CC1CC(OC(=O)COc2ccc(Cl)cc2Cl)=C(c2c(C)cc(C)cc2C)C1=O (stereo not shown) [1-075] |  |  | 4 (Herbicidal ratio of 70% or higher and lower than 90%) |  |  | 5 (Herbicidal ratio of 90% or more (almost completely withered)) | 4 (Herbicidal ratio of 70% or higher and lower than 90%) | 0 (Herbicidal ratio of 5% or lower (almost no effect)) | 5 (Herbicidal ratio of 90% or more (almost completely withered)) | 5 (Herbicidal ratio of 90% or more (almost completely withered)) |  |
| CON=CC(C)(C)C1CC(O)=C(c2c(C)cc(C)cc2C)C1=O (stereo not shown) [1-030] | 3 (Herbicidal ratio of 40% or higher and lower than 70%) | 0 (Herbicidal ratio of 5% or lower (almost no effect)) | 0 (Herbicidal ratio of 5% or lower (almost no effect)) | 0 (Herbicidal ratio of 5% or lower (almost no effect)) | 4 (Herbicidal ratio of 70% or higher and lower than 90%) | 1 (Herbicidal ratio of 5% or higher and lower than 20%) | 0 (Herbicidal ratio of 5% or lower (almost no effect)) | 0 (Herbicidal ratio of 5% or lower (almost no effect)) | 5 (Herbicidal ratio of 90% or more (almost completely withered)) |  |  |
| CON=C(C)CC1CC(OC(=O)COc2ccc(Cl)cc2)=C(c2c(C)cc(C)cc2C)C1=O (stereo not shown) [1-044] | 4 (Herbicidal ratio of 70% or higher and lower than 90%) |  | 4 (Herbicidal ratio of 70% or higher and lower than 90%) | 4 (Herbicidal ratio of 70% or higher and lower than 90%) | 5 (Herbicidal ratio of 90% or more (almost completely withered)) | 5 (Herbicidal ratio of 90% or more (almost completely withered)) | 5 (Herbicidal ratio of 90% or more (almost completely withered)) | 0 (Herbicidal ratio of 5% or lower (almost no effect)) | 5 (Herbicidal ratio of 90% or more (almost completely withered)) |  |  |
| CON=C(C)CC1CC(OC(=O)COc2ccc(F)cc2)=C(c2c(C)cc(C)cc2C)C1=O (stereo not shown) [1-073] |  |  | 5 (Herbicidal ratio of 90% or more (almost completely withered)) | 1 (Herbicidal ratio of 5% or higher and lower than 20%) |  | 5 (Herbicidal ratio of 90% or more (almost completely withered)) | 5 (Herbicidal ratio of 90% or more (almost completely withered)) | 0 (Herbicidal ratio of 5% or lower (almost no effect)) | 5 (Herbicidal ratio of 90% or more (almost completely withered)) | 5 (Herbicidal ratio of 90% or more (almost completely withered)) | 4 (Herbicidal ratio of 70% or higher and lower than 90%) |
| CON=C(CC1CC(OC(=O)COc2ccccc2)=C(c2c(C)cc(C)cc2C)C1=O)C1CC1 (stereo not shown) [1-063] | 4 (Herbicidal ratio of 70% or higher and lower than 90%) | 0 (Herbicidal ratio of 5% or lower (almost no effect)) | 2 (Herbicidal ratio of 20% or higher and lower than 40%) | 0 (Herbicidal ratio of 5% or lower (almost no effect)) | 5 (Herbicidal ratio of 90% or more (almost completely withered)) | 5 (Herbicidal ratio of 90% or more (almost completely withered)) | 3 (Herbicidal ratio of 40% or higher and lower than 70%) | 0 (Herbicidal ratio of 5% or lower (almost no effect)) | 5 (Herbicidal ratio of 90% or more (almost completely withered)) |  |  |
| CON=C(C)CC1CC(OC(=O)COc2ccccc2[N+](=O)[O-])=C(c2c(C)cc(C)cc2C)C1=O (stereo not shown) [1-071] | 4 (Herbicidal ratio of 70% or higher and lower than 90%) | 1 (Herbicidal ratio of 5% or higher and lower than 20%) | 3 (Herbicidal ratio of 40% or higher and lower than 70%) | 0 (Herbicidal ratio of 5% or lower (almost no effect)) | 5 (Herbicidal ratio of 90% or more (almost completely withered)) | 5 (Herbicidal ratio of 90% or more (almost completely withered)) | 4 (Herbicidal ratio of 70% or higher and lower than 90%) | 0 (Herbicidal ratio of 5% or lower (almost no effect)) | 5 (Herbicidal ratio of 90% or more (almost completely withered)) |  |  |
